According to US11807835B2, “Detergent compositions containing a stabilized enzyme by phosphonates” (ECOLAB USA INC., priority 2016, dated 2023):

System: lipase
Assay: Lipase activity retention in detergent use solution (4000 ppm, 5 GPG water; p-nitrophenyl valerate, TRIS buffer pH 8.0)
Format: biochemical
Conditions: for Relative Lipase Enzyme Activity in a Use Solution of the All Ash Detergent Composition: Table 6F, 120º F.; for Relative Lipase Enzyme Activity: base formula
Experimental: The enzyme […] collected up to 4 hours, after a use solution was generated from the detergent composition. During the tests, the samples at different time points were collected and immediately frozen in an acetone/dry ice bath and stored in −80° C. before the activity of the enzyme was evaluated. For the use of such an assay, t=0 min was the reference point for 100% enzyme activity.
Assays of enzyme activity in formulations (% retention) were conducted to simulate a presoak condition in a beaker using the chemistry, temperature, and pH conditions relevant to manual warewash or presoak applications. Enzyme activity is an indicator of the stability of the enzyme in the detergent, specifically in an aqueous use solution within a sump (which is under conditions of high pH, temperature and dilution).
Enzyme activity under presoak or manual warewash conditions was traced quantitatively using a standard protease assay. Samples were prepared under bench top conditions, whereby the use solution from a detergent composition or detergent was obtained and maintained at a presoak or manual warewash temperature in a stirring water bath. After the time course for assessing enzyme stability is initiated, aliquots were taken at various time points and flash-frozen. A time=0 sample was prepared for each series by dissolving the detergent formulation at room temperature, mixing thoroughly, and flash freezing. Samples were thawed and diluted as necessary in an assay buffer usually for use in the protease assay. A glycine buffer at pH 9.0 is used here. The assay monitored the direct reaction of the protease on a small, commercially available peptidyl substrate, with liberation of the product providing correlation to the active enzyme content. The product was detected using a plate reader with an appreciable dynamic range (upper absorbance limit of the instrument >3.5). Enzyme activity levels were assessed relative to a calibration curve with average values for replicate tests used to map protease stability under presoak or manual warewash use conditions. Enzyme retention at each time point was calculated as the % enzyme activity relative to the time=0 sample.
The analysis by lipase and amylase assay was conducted similarly, except with a different substrate and buffers. For lipase activity, the substrate is p-nitrophenyl valerate, and for amylase, the substrate is an ethylidene substrate (EPS). The buffer used in lipase assay is TRIS (Tris(hydroxymethyl)aminomethane) buffer at pH 8.0, and in amylase assay HEPES (4-(2-hydroxyethyl)-1-piperazineethanesulfonic acid) buffer at pH 8.0.

**Q.** `O=P(O)(O)CN(CP(=O)(O)O)CP(=O)(O)O` [ATMP, Aminotri (methylene phosphonic acid)] was tested. Which “Relative Lipase Enzyme Activity in a Use Solution of the All Ash Detergent Composition” value (all ash formula, phosphonate 0.3 wt-%, time 0 min) did it give?
**A.** 100.00%

**Q.** And the “Relative Lipase Enzyme Activity in a Use Solution of the All Ash Detergent Composition” value (all ash formula, phosphonate 0.3 wt-%, time 5 min)?
**A.** 61.64%

**Q.** What about the “Relative Lipase Enzyme Activity in a Use Solution of the All Ash Detergent Composition” value (all ash formula, phosphonate 0.3 wt-%, time 10 min) of the same molecule?
**A.** 63.66%

**Q.** And the “Relative Lipase Enzyme Activity in a Use Solution of the All Ash Detergent Composition” value (all ash formula, phosphonate 0.3 wt-%, time 20 min)?
**A.** 54.08%

**Q.** And the “Relative Lipase Enzyme Activity in a Use Solution of the All Ash Detergent Composition” value (all ash formula, phosphonate 0.3 wt-%, time 40 min)?
**A.** 41.20%

**Q.** And the “Relative Lipase Enzyme Activity in a Use Solution of the All Ash Detergent Composition” value (all ash formula, phosphonate 0.3 wt-%, time 60 min)?
**A.** 36.19%

**Q.** And the “Relative Lipase Enzyme Activity in a Use Solution of the All Ash Detergent Composition” value (all ash formula, phosphonate 0.3 wt-%, time 90 min)?
**A.** 30.66%

**Q.** What about the “Relative Lipase Enzyme Activity in a Use Solution of the All Ash Detergent Composition” value (all ash formula, phosphonate 0.3 wt-%, time 120 min) of the same molecule?
**A.** 19.17%

**Q.** And the “Relative Lipase Enzyme Activity in a Use Solution of the All Ash Detergent Composition” value (all ash formula, phosphonate 0.3 wt-%, time 150 min)?
**A.** 23.54%

**Q.** What about the “Relative Lipase Enzyme Activity in a Use Solution of the All Ash Detergent Composition” value (all ash formula, phosphonate 0.3 wt-%, time 180 min) of the same molecule?
**A.** 14.43%

**Q.** And the “Relative Lipase Enzyme Activity in a Use Solution of the All Ash Detergent Composition” value (all ash formula, phosphonate 0.3 wt-%, time 210 min)?
**A.** 13.63%

**Q.** What about the “Relative Lipase Enzyme Activity in a Use Solution of the All Ash Detergent Composition” value (all ash formula, phosphonate 0.3 wt-%, time 240 min) of the same molecule?
**A.** 12.97%

**Q.** What about the “lipase stability in all ash formula” value (all ash formula, versus same composition with PBTC or HEDP without amine(s), FIG. 6G) of the same molecule?
**A.** more stable

**Q.** What about the “Relative Lipase Enzyme Activity” value (phosphonate 0.3 wt-%, use solution at 120° F., time 0 min) of the same molecule?
**A.** 100.00%

**Q.** And the “Relative Lipase Enzyme Activity” value (phosphonate 0.3 wt-%, use solution at 120° F., time 5 min)?
**A.** 79.77%

**Q.** What about the “Relative Lipase Enzyme Activity” value (phosphonate 0.3 wt-%, use solution at 120° F., time 10 min) of the same molecule?
**A.** 71.10%

**Q.** And the “Relative Lipase Enzyme Activity” value (phosphonate 0.3 wt-%, use solution at 120° F., time 20 min)?
**A.** 62.47%

**Q.** And the “Relative Lipase Enzyme Activity” value (phosphonate 0.3 wt-%, use solution at 120° F., time 40 min)?
**A.** 39.28%

**Q.** And the “Relative Lipase Enzyme Activity” value (phosphonate 0.3 wt-%, use solution at 120° F., time 60 min)?
**A.** 34.01%

**Q.** And the “Relative Lipase Enzyme Activity” value (phosphonate 0.3 wt-%, use solution at 120° F., time 90 min)?
**A.** 26.70%

**Q.** What about the “Relative Lipase Enzyme Activity” value (phosphonate 0.3 wt-%, use solution at 120° F., time 120 min) of the same molecule?
**A.** 22.13%

**Q.** What about the “Relative Lipase Enzyme Activity” value (phosphonate 0.3 wt-%, use solution at 120° F., time 150 min) of the same molecule?
**A.** 19.07%

**Q.** And the “Relative Lipase Enzyme Activity” value (phosphonate 0.3 wt-%, use solution at 120° F., time 180 min)?
**A.** 17.48%

**Q.** And the “Relative Lipase Enzyme Activity” value (phosphonate 0.3 wt-%, use solution at 120° F., time 210 min)?
**A.** 15.49%

**Q.** And the “Relative Lipase Enzyme Activity” value (phosphonate 0.3 wt-%, use solution at 120° F., time 240 min)?
**A.** 14.68%

**Q.** And the “Relative Lipase Enzyme Activity” value (phosphonate 0.6 wt-%, use solution at 120º F., time 0 min)?
**A.** 100.00%

**Q.** What about the “Relative Lipase Enzyme Activity” value (phosphonate 0.6 wt-%, use solution at 120º F., time 5 min) of the same molecule?
**A.** 93.26%

**Q.** What about the “Relative Lipase Enzyme Activity” value (phosphonate 0.6 wt-%, use solution at 120º F., time 10 min) of the same molecule?
**A.** 87.80%

**Q.** And the “Relative Lipase Enzyme Activity” value (phosphonate 0.6 wt-%, use solution at 120º F., time 20 min)?
**A.** 81.36%

**Q.** What about the “Relative Lipase Enzyme Activity” value (phosphonate 0.6 wt-%, use solution at 120º F., time 40 min) of the same molecule?
**A.** 60.03%

**Q.** And the “Relative Lipase Enzyme Activity” value (phosphonate 0.6 wt-%, use solution at 120º F., time 60 min)?
**A.** 56.12%

**Q.** What about the “Relative Lipase Enzyme Activity” value (phosphonate 0.6 wt-%, use solution at 120º F., time 90 min) of the same molecule?
**A.** 49.58%

**Q.** What about the “Relative Lipase Enzyme Activity” value (phosphonate 0.6 wt-%, use solution at 120º F., time 120 min) of the same molecule?
**A.** 42.20%

**Q.** What about the “Relative Lipase Enzyme Activity” value (phosphonate 0.6 wt-%, use solution at 120º F., time 150 min) of the same molecule?
**A.** 37.91%

**Q.** And the “Relative Lipase Enzyme Activity” value (phosphonate 0.6 wt-%, use solution at 120º F., time 180 min)?
**A.** 33.77%

**Q.** What about the “Relative Lipase Enzyme Activity” value (phosphonate 0.6 wt-%, use solution at 120º F., time 210 min) of the same molecule?
**A.** 32.19%

**Q.** And the “Relative Lipase Enzyme Activity” value (phosphonate 0.6 wt-%, use solution at 120º F., time 240 min)?
**A.** 29.80%

**Q.** And the “Relative Lipase Enzyme Activity” value (phosphonate at 0.1% elemental phosphorus, at 120º F. or at room temperature (as titled), time 0 min)?
**A.** 100.00%

**Q.** And the “Relative Lipase Enzyme Activity” value (phosphonate at 0.1% elemental phosphorus, at 120º F. or at room temperature (as titled), time 5 min)?
**A.** 82.14%

**Q.** And the “Relative Lipase Enzyme Activity” value (phosphonate at 0.1% elemental phosphorus, at 120º F. or at room temperature (as titled), time 10 min)?
**A.** 78.45%

**Q.** What about the “Relative Lipase Enzyme Activity” value (phosphonate at 0.1% elemental phosphorus, at 120º F. or at room temperature (as titled), time 20 min) of the same molecule?
**A.** 64.87%

**Q.** What about the “Relative Lipase Enzyme Activity” value (phosphonate at 0.1% elemental phosphorus, at 120º F. or at room temperature (as titled), time 40 min) of the same molecule?
**A.** 45.84%

**Q.** And the “Relative Lipase Enzyme Activity” value (phosphonate at 0.1% elemental phosphorus, at 120º F. or at room temperature (as titled), time 60 min)?
**A.** 37.66%

**Q.** And the “Relative Lipase Enzyme Activity” value (phosphonate at 0.1% elemental phosphorus, at 120º F. or at room temperature (as titled), time 90 min)?
**A.** 30.16%

**Q.** What about the “Relative Lipase Enzyme Activity” value (phosphonate at 0.1% elemental phosphorus, at 120º F. or at room temperature (as titled), time 120 min) of the same molecule?
**A.** 25.91%

**Q.** And the “Relative Lipase Enzyme Activity” value (phosphonate at 0.1% elemental phosphorus, at 120º F. or at room temperature (as titled), time 150 min)?
**A.** 21.51%

**Q.** And the “Relative Lipase Enzyme Activity” value (phosphonate at 0.1% elemental phosphorus, at 120º F. or at room temperature (as titled), time 180 min)?
**A.** 15.43%

**Q.** What about the “Relative Lipase Enzyme Activity” value (phosphonate at 0.1% elemental phosphorus, at 120º F. or at room temperature (as titled), time 210 min) of the same molecule?
**A.** 17.94%

**Q.** And the “Relative Lipase Enzyme Activity” value (phosphonate at 0.1% elemental phosphorus, at 120º F. or at room temperature (as titled), time 240 min)?
**A.** 15.64%
